Legend:
[1] = system: T47D cells; experiment: Cellular growth inhibition assay for T47D cells, CellTiter-Glo; format: cell-based, human; conditions: 72 hours treatment, CellTiter-Glo 2.0 cell viability
Procedure, shortened: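 Cells are plated at 3000/well and allowed 24 h before treatment. Test compound in medium containing 0.5% DMSO is then added, with DMSO-only wells as negative control, and plates are incubated 72 h at 37 °C. ATP luminescence (CellTiter-Glo 2.0) is then fitted to four parameters to derive GI50.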

[2] = system: T-Rex 293 cell line SC3 cells having increased expression of androgen receptor protein due to exposure to doxycycline; experiment: Cellular growth inhibition, T-Rex 293 SC3 cells with doxycycline (androgen receptor induced), CellTiter-Glo; format: cell-based; conditions: T-Rex 293 SC3 cells with 10 ng/mL doxycycline (increased androgen receptor expression)
Procedure, shortened: (§1)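 GI50 came from a four-parameter fit of CellTiter-Glo 2.0 luminescence after 72 h compound exposure (0.5% DMSO, 37 °C), dosing 24 h post-seeding. SC3 clone cells (2500/well), transfected with wild-type androgen receptor, grew in charcoal-stripped serum medium lacking phenol red, induced with 10 ng/mL doxycycline or left uninduced.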

[3] = system: VCaP cells; experiment: Cellular growth inhibition assay for VCaP cells, CellTiter-Glo; format: cell-based, human; conditions: 72 hours treatment, CellTiter-Glo 2.0
Procedure, shortened: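 GI50 values come from four-parameter curve fits of luminescence data normalized to a zero baseline. Compound, in medium with 0.5% DMSO, was added one day after plating and left for 72 h before CellTiter-Glo 2.0 addition.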

[4] = system: T-Rex 293 cell line SC3 cells lacking increased expression of androgen receptor protein; experiment: Cellular growth inhibition, T-Rex 293 SC3 cells without doxycycline, CellTiter-Glo; format: cell-based; conditions: T-Rex 293 SC3 cells not exposed to doxycycline, CellTiter-Glo 2.0
Procedure, shortened: as §1

Compound | GI50 ([1]; Homo sapiens, T47D, 72 h) | GI50 ([2]; 72 h) | GI50 ([3]; Homo sapiens, VCaP, 72 h) | GI50 ([4]; 72 h) | GI50 [1] | GI50 ([2]; 72 hours) | GI50 [3] | GI50 ([4]; 72 hours)
Cc1sc2c(c1C)C(c1ccc(OC3CC4(CCN(c5ncc(C(=O)N[C@H]6C(C)(C)[C@H](Oc7ccc(C#N)c(Cl)c7)C6(C)C)cn5)CC4)C3)cc1)=N/C(=C/c1ncco1)c1nnc(C)n1-2 [Compound I-230, N-[3-(3-chloro-4-cyano-phenoxy)-2,2,4,4-tetramethyl-cyclobutyl]-2-[2-[4-[(9E)-4,5,13-trimethyl-9-(oxazol-2-ylmethylene)-3-thia-1,8,11,12-tetrazatricyclo[8.3.0.02,6]trideca-2(6),4,7,10,12-pentaen-7-yl]phenoxy]-7-azaspiro[3.5]nonan-7-yl]pyrimidine-5-carboxamide] | > 3000 nM | < 500 nM | < 500 nM | > 3000 nM | – | – | – | –
CNc1ccc2c(n1)C(c1ccc(OC3CC4(CCCN(c5ncc(C(=O)N[C@H]6C(C)(C)[C@H](Oc7ccc(C#N)c(Cl)c7)C6(C)C)cn5)C4)C3)cc1)=NCc1onc(C)c1-2 [Compound I-231, N-[3-(3-chloro-4-cyano-phenoxy)-2,2,4,4-tetramethyl-cyclobutyl]-2-[2-[4-[3-methyl-12-(methylamino)-5-oxa-4,8,11-triazatricyclo [8.4.0.02,6]tetradeca-1(10),2(6),3,8,11,13-hexaen-9-yl]phenoxy]-6-azaspiro[3.5]nonan-6-yl]pyrimidine-5-carboxamide] | > 3000 nM | < 500 nM | > 3000 nM | > 3000 nM | – | – | – | –
CNc1ccc2c(n1)C(c1ccc(OC3CC4(CCN(c5ncc(C(=O)N[C@H]6C(C)(C)[C@H](Oc7ccc(C#N)c(Cl)c7)C6(C)C)cn5)CC4)C3)cc1)=NCc1onc(C)c1-2 [Compound I-232] | < 500 nM | < 500 nM | < 500 nM | > 3000 nM | – | – | – | –
Cc1sc2c(c1C)C(c1ccc(OC[C@H]3C[C@]4(CCCN(c5ncc(C(=O)N[C@H]6C(C)(C)[C@H](Oc7ccc(C#N)c(Cl)c7)C6(C)C)cn5)C4)C3)cc1)=N[C@@H](Cc1ncco1)c1nnc(C)n1-2 [Compound I-233] | < 500 nM | < 500 nM | 500 to 1500 nM | 1500 to 3000 nM | – | – | – | –
Cc1sc2c(c1C)C(c1ccc(OC[C@H]3C[C@@]4(CCCN(c5ncc(C(=O)N[C@H]6C(C)(C)[C@H](Oc7ccc(C#N)c(Cl)c7)C6(C)C)cn5)C4)C3)cc1)=N[C@@H](Cc1ncco1)c1nnc(C)n1-2 [Compound I-234] | < 500 nM | < 500 nM | < 500 nM | 500 to 1500 nM | – | – | – | –
Cc1sc2c(c1C)C(c1ccc(N3CCN(C4CN(c5ncc(C(=O)NC6C(C)(C)C(Oc7ccc(C#N)c(Cl)c7)C6(C)C)cn5)C4)CC3)cc1)=N[C@@H](CC(=O)OC(C)(C)C)c1nnc(C)n1-2 (stereo partly drawn) [Compound I-236, tert-butyl 2-[(9S)-7-[4-[4-[1-[5-[[3-(3-chloro-4-cyano-phenoxy)-2,2,4,4-tetramethyl-cyclobutyl]carbamoyl]pyrimidin-2-yl]azetidin-3-yl]piperazin-1-yl]phenyl]-4,5,13-trimethyl-3-thia-1,8,11,12-tetrazatricyclo[8.3.0.02,6]trideca-2(6),4,7,10,12-pentaen-9-yl]acetate] | < 500 nM | < 500 nM | < 500 nM | 500 to 1500 nM | – | – | – | –
Cc1sc2c(c1C)C(c1ccc(C3CC3C3CC4(CCN(c5ncc(C(=O)N[C@H]6C(C)(C)[C@H](Oc7ccc(C#N)c(Cl)c7)C6(C)C)cn5)CC4)C3)cc1)=N[C@@H](Cc1ncco1)c1nnc(C)n1-2 (some centres unmarked) [Compound I-238] | – | – | – | – | < 500 nM | < 500 nM | < 500 nM | > 3000 nM
Cc1sc2c(c1C)C(c1ccc(CC[C@H]3C[C@]4(CCCN(c5ncc(C(=O)N[C@H]6C(C)(C)[C@H](Oc7ccc(C#N)c(Cl)c7)C6(C)C)cn5)C4)C3)cc1)=N[C@@H](Cc1ncco1)c1nnc(C)n1-2 [Compound I-239] | > 3000 nM | > 3000 nM | > 3000 nM | > 3000 nM | – | – | – | –
Cc1sc2c(c1C)C(c1ccc(CC[C@H]3C[C@@]4(CCCN(c5ncc(C(=O)N[C@H]6C(C)(C)[C@H](Oc7ccc(C#N)c(Cl)c7)C6(C)C)cn5)C4)C3)cc1)=N[C@@H](Cc1ncco1)c1nnc(C)n1-2 [Compound I-240] | > 3000 nM | > 3000 nM | > 3000 nM | > 3000 nM | – | – | – | –
Cc1sc2c(c1C)C(c1ccc(CCN3CC[C@]4(C3)CN(c3ncc(C(=O)N[C@H]5C(C)(C)[C@H](Oc6ccc(C#N)c(Cl)c6)C5(C)C)cn3)CCO4)cc1)=N[C@@H](Cc1ncco1)c1nnc(C)n1-2 [Compound I-242] | < 500 nM | < 500 nM | < 500 nM | < 500 nM | – | – | – | –
Cc1sc2c(c1C)C(c1ccc(CCN3CC[C@@]4(C3)CN(c3ncc(C(=O)N[C@H]5C(C)(C)[C@H](Oc6ccc(C#N)c(Cl)c6)C5(C)C)cn3)CCO4)cc1)=N[C@@H](Cc1ncco1)c1nnc(C)n1-2 [Compound I-243] | < 500 nM | < 500 nM | < 500 nM | < 500 nM | – | – | – | –
Cc1sc2c(c1C)C(c1ccc(C[C@H]3C[C@@]4(CN(c5ncc(C(=O)N[C@H]6C(C)(C)[C@H](Oc7ccc(C#N)c(Cl)c7)C6(C)C)cn5)CCO4)C3)cc1)=N[C@@H](Cc1ncco1)c1nnc(C)n1-2 [Compound I-244] | > 3000 nM | < 500 nM | > 3000 nM | > 3000 nM | – | – | – | –
Cc1sc2c(c1C)C(c1ccc(C[C@H]3C[C@]4(CN(c5ncc(C(=O)N[C@H]6C(C)(C)[C@H](Oc7ccc(C#N)c(Cl)c7)C6(C)C)cn5)CCO4)C3)cc1)=N[C@@H](Cc1ncco1)c1nnc(C)n1-2 [Compound I-245] | < 500 nM | < 500 nM | < 500 nM | < 500 nM | – | – | – | –
Cc1sc2c(c1C)C(c1ccc(CCCOC3CCN(c4ncc(C(=O)N[C@H]5C(C)(C)[C@H](Oc6ccc(C#N)c(Cl)c6)C5(C)C)cn4)CC3)cc1)=C[C@H](Cc1cccnc1)c1nnc(C)n1-2 [Compound I-246] | < 500 nM | < 500 nM | < 500 nM | > 3000 nM | – | – | – | –
Cc1sc2c(c1C)C(c1ccc(C3CN(C4CCN(c5ncc(C(=O)N[C@H]6C(C)(C)[C@H](Oc7ccc(C#N)c(Cl)c7)C6(C)C)cn5)CC4)C3)cc1)=N[C@@H](Cc1ncco1)c1nnc(C)n1-2 [Compound I-247] | < 500 nM | < 500 nM | < 500 nM | < 500 nM | – | – | – | –
Cc1sc2c(c1C)C(c1ccc(CC[C@H]3CC[C@@]4(CCCN(c5ncc(C(=O)N[C@H]6C(C)(C)[C@H](Oc7ccc(C#N)c(Cl)c7)C6(C)C)cn5)C4)C3)cc1)=N[C@@H](Cc1ncco1)c1nnc(C)n1-2 [Compound I-248] | > 3000 nM | > 3000 nM | > 3000 nM | > 3000 nM | – | – | – | –
Cc1sc2c(c1C)C(c1ccc(CC[C@@H]3CC[C@@]4(CCCN(c5ncc(C(=O)N[C@H]6C(C)(C)[C@H](Oc7ccc(C#N)c(Cl)c7)C6(C)C)cn5)C4)C3)cc1)=N[C@@H](Cc1ncco1)c1nnc(C)n1-2 [Compound I-249] | > 3000 nM | > 3000 nM | > 3000 nM | > 3000 nM | – | – | – | –
Cc1sc2c(c1C)C(c1ccc(CC[C@@H]3CC[C@]4(CCCN(c5ncc(C(=O)N[C@H]6C(C)(C)[C@H](Oc7ccc(C#N)c(Cl)c7)C6(C)C)cn5)C4)C3)cc1)=N[C@@H](Cc1ncco1)c1nnc(C)n1-2 [Compound I-250] | < 500 nM | < 500 nM | < 500 nM | > 3000 nM | – | – | – | –
Cc1sc2c(c1C)C(c1ccc(CC[C@H]3CC[C@]4(CCCN(c5ncc(C(=O)N[C@H]6C(C)(C)[C@H](Oc7ccc(C#N)c(Cl)c7)C6(C)C)cn5)C4)C3)cc1)=N[C@H](Cc1ncco1)c1nnc(C)n1-2 [Compound I-251] | < 500 nM | < 500 nM | < 500 nM | > 3000 nM | – | – | – | –
Cc1sc2c(c1C)C(c1ccc(CC[C@@H]3CC[C@@]4(CCCN(c5ncc(C(=O)N[C@H]6C(C)(C)[C@H](Oc7ccc(C#N)c(Cl)c7)C6(C)C)cn5)C4)C3)cc1)=N[C@H](Cc1ncco1)c1nnc(C)n1-2 [Compound I-252] | < 500 nM | < 500 nM | > 3000 nM | > 3000 nM | – | – | – | –
Cc1sc2c(c1C)C(c1ccc(O[C@H]3CCCN(c4ncc(C(=O)N[C@H]5C(C)(C)[C@H](Oc6ccc(C#N)c(Cl)c6)C5(C)C)cn4)C3)cc1)=N[C@@H](Cc1ncco1)c1nnc(C)n1-2 [Compound I-253] | 500 to 1500 nM | < 500 nM | < 500 nM | < 500 nM | – | – | – | –
Cc1sc2c(c1C)C(c1ccc(OC[C@@H]3CCCN(c4ncc(C(=O)N[C@H]5C(C)(C)[C@H](Oc6ccc(C#N)c(Cl)c6)C5(C)C)cn4)C3)cc1)=N[C@@H](Cc1ncco1)c1nnc(C)n1-2 [Compound I-254] | < 500 nM | < 500 nM | < 500 nM | < 500 nM | – | – | – | –
Cc1sc2c(c1C)C(c1ccc(OC[C@H]3CCCN(c4ncc(C(=O)N[C@H]5C(C)(C)[C@H](Oc6ccc(C#N)c(Cl)c6)C5(C)C)cn4)C3)cc1)=N[C@@H](Cc1ncco1)c1nnc(C)n1-2 [Compound I-255] | < 500 nM | < 500 nM | < 500 nM | < 500 nM | – | – | – | –

— patent publication US20260062422A1 (Halda Therapeutics OpCo, Inc., priority 2022, published 2026)
